Test results published in patent US11219218B2, “Methods of enhancing algae production” (Boise State University, priority 2018, dated 2022).
Like-named read-outs stand apart in the source and are kept apart here.

Key:
Scenedesmus obliquus = details: Abeliovich and Azov, 1976; cited from earlier work
N. oculata [1] = tested on: N. oculata
Brachionus rotifer = details: cited from earlier work
B. plicatilis [2] = details: for effect of elevated free ammonia exposure time on 24-hour rotifer survival: pH 9, exposure 0-12 hours; for mean rotifer densities over the eight-day experiment: f/2 and ADE media
Experimental: (§1) Five free ammonia exposure times were chosen (0, 1, 2, 6, and 12 hours) with the goal of identifying which times may lead to an optimal reduction of B. plicatilis populations without negatively affecting N. oculata growth. We also used a rotifer-free control to observe the growth of N. oculata with neither rotifers nor elevated free ammonia exposure relative to experimental treatments. We conducted this experiment in both defined media (f/2) and dairy wastewater (ADE) to observe any differences between media types. For the defined medium trial, we created culture mixtures containing f/2 in ASW, 0.01 M Tris base, N. oculata at approximately 1×10^6 cells mL^−1 and B. plicatilis at approximately 10 rotifers mL^−1. NH4Cl was added to this mixture to initiate the period of free ammonia exposure. Similarly, for the dairy wastewater trial, we created culture mixtures containing ASW, 0.01 M Tris base, N. oculata at approximately 1×10^6 cells mL^−1, and B. plicatilis at approximately 10 rotifers/mL. The initial cell density of N. oculata was meant to represent a high-density culture nearing early stationary phase, which also allowed for increases in cell density. The initial rotifer density was chosen to represent initial stages of a contamination event after exposure of the algal culture to colonizing rotifer pests, at which point contamination is detectable yet treatable. ADE was added to this mixture to initiate the period of free ammonia exposure. For both trials, pH was immediately adjusted to 9 for the 1, 2, 6, and 12 hour treatments and held at this pH for the designated exposure time. The 0 hour and control treatments were adjusted to pH 6.3-6.5 via CO2 addition prior to addition of the ammonium source, thereby eliminating any exposure to elevated free ammonia. […] Thus, all treatments within an experiment received the same amount of CO2 and the same amount of total NH3—N. Flasks were shaken and stirred once daily on a stir plate while pH was being adjusted to desired level. In this experiment, pH was measured and controlled in each treatment using American Marine Pinpoint pH controllers.
(§2) Samples for total NH3—N were collected at the beginning and end of the exposure time for each treatment in order to quantify potential loss of N from the system caused by volatilization of free ammonia. Densities of N. oculata and B. plicatilis were measured at the initial free ammonia exposure time, and every 24 hours thereafter for eight days. Live B. plicatilis were enumerated in triplicate 1 mL counts in a Sedgewick-Rafter counting chamber (Wildco item #EW-05491-64), and growth of N. oculata was tracked by both OD680 measurement and direct cell counts. Final ash free dry weight (AFDW) was measured on day eight for all replicates.
(§3) We chose this range in order to eliminate possible free ammonia inhibition after the designated exposure period while also staying within the pH range for optimal growth of N. oculata.

N. oculata [3] = details: for algal growth rate / final AFDW: co-culture with B. plicatilis; for final AFDW: day eight
Experimental: as §1, §2, §3

Chlorella sorokiniana = details: Gutierrez et al., 2016; cited from earlier work
Nannochloropsis oculata = details: Gutierrez et al., 2016, cited from earlier work
B. plicatilis [4] = tested on: B. plicatilis
Chlorella pyrenoidosa = details: Tan et al., 2015; cited from earlier work

N [free ammonia, ammonia]
concentration tolerated without inhibition of photosynthesis or growth rate (Scenedesmus obliquus): up to 28 mg/L free NH3—N | effect of free ammonia concentration on final OD680 levels (N. oculata [1]; ADE cultures): no effect | effect of initial free ammonia on growth rates (N. oculata [1]; ADE medium): no effect | OD680 levels of N. oculata with increasing free ammonia levels (N. oculata [1]; f/2 medium): increased | effect of initial free ammonia on growth rates (N. oculata [1]; f/2 medium): no effect | inhibition of N. oculata (N. oculata [1]; f/2 or ADE media, any of the free ammonia levels tested, seven days): no observed inhibition | concentration that causes complete mortality (Brachionus rotifer; Schlüter and Groeneweg, 1985): over 5 mg/L free NH3—N | concentration that reduces Brachionus rotifer reproduction (Brachionus rotifer; de Araujo et al., 2000): ≥ 2.4 mg/L | prediction formula for 24-hour B. plicatilis survival against exposure time (FIG. 3) (B. plicatilis [2]; ADE medium, 52.8 mg L^−1 free ammonia): ln(% survival)=4.768-0.2902*exposure time | effect of elevated free ammonia exposure time on 24-hour rotifer survival (B. plicatilis [2]; dairy ADE medium): significantly decreased | effect of elevated free ammonia exposure time on 24-hour rotifer survival (B. plicatilis [2]; f/2 medium): significantly decreased | mean rotifer densities over the eight-day experiment (B. plicatilis [2]; six-hour exposure time): remained below the initial density | mean rotifer densities over the eight-day experiment (B. plicatilis [2]; twelve-hour exposure time): remained below the initial density | rotifer density over the eight-day experiment (B. plicatilis [2]; two hours or less of exposure, ADE medium): proliferated, with up to an order of magnitude increase in rotifer density | effects on the alga Nannochloropsis oculata (N. oculata [3]; 6-12 hours of elevated free ammonia, both media types): no negative effects | algal growth rate (N. oculata [3]; 6-hour exposure time): 0.70 ± 0.01 day⁻¹ | final AFDW (N. oculata [3]; 6-hour exposure time): 0.37 ± 0.004 g/L | algal growth rate (N. oculata [3]; 12-hour exposure time): 0.60 ± 0.06 day⁻¹ | final AFDW (N. oculata [3]; 12-hour exposure time): 0.38 ± 0.004 g/L | highest level tested, not inhibited (Chlorella sorokiniana): 16 mg free NH3—N | highest level tested, not inhibited (Nannochloropsis oculata): 16 mg free NH3—N | lipid content of N. oculata (Nannochloropsis oculata; exposure to high free ammonia levels): not significantly altered | prediction formula for 24-hour rotifer survival against free ammonia concentration (FIG. 1A) (B. plicatilis [4]; 5% ADE medium): ln(% survival)=3.606-0.0357*exposure time | relationship between initial free ammonia concentration and B. plicatilis survival after 24 hours (B. plicatilis [4]; 5% dairy ADE, free ammonia 0.77-48.9 mg L^−1 (pH 7-9)): significant negative relationship | relationship between initial free ammonia concentration and B. plicatilis survival after 24 hours (B. plicatilis [4]; ASW medium with NH4Cl, free ammonia 0.65-41.6 mg L^−1 (pH 7-9)): significant negative relationship | concentration tolerated without inhibition of photosynthesis or growth rate (Chlorella pyrenoidosa): up to 20 mg/L free NH3—N
